US6432434B1, “Treatment of and/or prophylaxis against brain and spinal cord injury” (The United States of America as represented by the …, priority 1999, dated 2002)
Read-outs that look alike come from different tables or passages of the source.

Experiments:
[1] = system: rats injected intrathecally with dynorphin A; experiment: Dynorphin A-induced paralysis in rats, neurological score; assay type: in vivo, rat; details: n = 9, 5 μmoles DHL in DMSO intrathecally
Experimental: Rats were injected with […] of dynorphin A in combination with DMSO (vehicle only) or dynorphin A (Dny) with 5 μmoles of dihydrolipoate in DMSO. The DMSO (control) and the DMSO with dihydrolipoate (DHL/DMSO) were administered as 2 hour pretreatment before administration of the dynorphin A and as cotreatment with dynorphin A. All rats were flaccidly paralyzed 10 minutes following dynorphin a injections. All injections were administered intrathecally.

[2] = system: ischemia-reperfusion injury; details: rat; cited from earlier work
[3] = system: ischemia-reperfusion injury; details: gerbil; cited from earlier work
[4] = system: NMDA and malonic acid lesions of striatum; details: rats; cited from earlier work
[5] = man, cited from earlier work
[6] = 2 hrs, pretreatment and cotreatment with dynorphin A
[7] = 24 hrs, pretreatment and cotreatment with dynorphin A

Compound | Number of animals with neurological score 4 (normal) ([1]; 2 hrs, 2 hour pretreatment and cotreatment with 20 μmoles dynorphin A, 4 normal, 0 flaccid paralysis) | Number of animals with neurological score 0 (flaccid paralysis) [1, 6] | Number of animals with neurological score 1 [1, 6] | Number of animals with neurological score 2 [1, 6] | Number of animals with neurological score 3 [1, 6] | Number of animals with neurological score 1 [1, 7] | Number of animals with neurological score 3 [1, 7] | Number of animals with neurological score 4 (normal) [1, 7] | Neuroprotection against ischemia-reperfusion injury [2] | Neuroprotection against ischemia-reperfusion injury [3] | Effect against NMDA lesions of striatum [4] | Effect against malonic acid lesions of striatum [4] | Clinical safety / tolerability [5] | Clinical safety / tolerability ([5]; listed as αLA)
O=C(O)CCCC[C@@H](S)CCS (racemic) [DHL, dihydrolipoic acid] | 2 | 1 | 1 | 2 | 3 | 2 | 3 | 4 |  |  |  |  |  | 
O=C(O)CCCCC1CCSS1 (stereo not drawn) [Alpha lipoic acid] |  |  |  |  |  |  |  |  | neuroprotective | neuroprotective | effective | effective | clinically safe | well tolerated
